# Source: patent US20140234868A1, “USE FOR GLYCOLIPOPROTEIN GINTONIN, ISOLATED AND IDENTIFIED FROM GINSENG, AS A NATURAL MEDICAL-PLANT DERIVED LIGAND” (KONKUK UNIVERSITY INDUSTRIAL COOPERATION CORP., priority 2011, published 2014)
# Tests used:
# LPA3 receptor = target: T1, LPA3 receptor (Homo sapiens, UniProt Q9UBY5); assay: Intracellular free Ca2+ (Fura-2AM) in LPA3-expressing B103 cells; format: cell-based; settings: LPA3-expressing B103 cells; for increase of intracellular calcium level: ginsenosides each 10 μM
# T1 construct: host or cells: B103 rat neuroblastoma cells
# T1 sequence (Q9UBY5 1-353): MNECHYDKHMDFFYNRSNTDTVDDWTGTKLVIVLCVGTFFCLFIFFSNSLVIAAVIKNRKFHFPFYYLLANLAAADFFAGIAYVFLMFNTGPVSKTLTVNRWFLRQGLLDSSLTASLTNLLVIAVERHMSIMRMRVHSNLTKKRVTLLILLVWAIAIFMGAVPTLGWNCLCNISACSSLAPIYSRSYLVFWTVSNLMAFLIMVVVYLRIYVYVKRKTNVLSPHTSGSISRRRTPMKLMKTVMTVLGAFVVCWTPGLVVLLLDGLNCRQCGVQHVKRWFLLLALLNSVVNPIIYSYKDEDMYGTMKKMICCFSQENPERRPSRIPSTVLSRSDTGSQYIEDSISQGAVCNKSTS
# Description: (§1) LPA family receptors are endogenous to cells of most organs. B103 rat neuroblastoma cells, known as LPA receptor-null cells (Valentine et al., Biochim Biophys Acta 1780. 597-605) were transiently transfected with a plasmid (vector) carrying one of genes coding for LPA1(edg-2), LPA2(edg-4), LPA3(edg-7), LPA4, LPA5 and LPA6 receptors or a plasmid carrying none of them (empty vector). Two or three days after transfection, the cells are suspended, and made permeable. Then, the permeable cells are treated with Fura-2AM, a fluorescent dye binding to calcium, and then with gintonin, followed by spectrofluorephotometry to examine whether gintonin induces an increase in intracellular free Ca^2+ level.
# (§2) (1) preparing large quantities of plasmids carrying respective LPA family receptor genes and an empty plasmid carrying none of them through amplification and purification (maxi-preparation); (2) verifying the expression of LPA receptors wherein B103 cells are transfected with haematoglutin (HA)-tagged LPA receptors, and then subjected to Western blotting analysis using an anti-HA primary antibody and a horseradish peroxidase (HRP)-conjugated secondary antibody to develop a color; (3) verifying the expression of LPA receptors wherein B1-3 cells are transfected with haematoglutin (HA)-tagged LPA receptors, and then subjected to confocal laser microscopy using an anti-HA antibody and a fluorescence dye Cy3-conjugated secondary antibody; (4) transfecting the empty plasmid and each of the plasmids carrying LPA family receptor genes into B103 cells; (5) treating the transfected B103 cells with trypsin (0.05% trypsin with EDTA, w/v) 2-3 days post-transfection, to give a cell suspension; (6) culturing the suspended B103 cells with Fura-2AM (2.5 μM); and (7) treating the suspended B103 cells with gintonin and quantifying a change in intracellular free Ca^2+ level in a cuvette by spectrofluorephotometry using Fura-2AM.
# (§3) Human LPA (lysophosphatidic acid) receptor subtypes, orphan GPCRs (G protein coupled receptors) and plasmids carrying GPCRs were purchased from Missouri S&T resource Center (www.cDNA.org).
# (§4) The transient transfection of LPA receptor subtypes was carried out with the aid of Lipofectamine 2000 of Invitrogen. A plasmid (10.8 μg) carrying each LPA receptor (LPA1, LPA2, LPA3, LPA4, LPA5, and LPA6) was transfected into B103 cells grown in 10-cm dishes, and incubated for 2 days prior for use in experiments.
# In this Example, gintonin, or ginsenoside Rb1 or Rg1 was examined for its ability to induce a transient increase of [Ca^2+]i in Fura-2AM-loaded B103 cells which were transfected with LPA receptors and in Fura-2AM-loaded B103 cells which were not transfected with LPA receptors. To this end, B103 cells (2˜4×10^6/ml) pre-treated with Fura-2AM were suspended in a 1.5 mM Ca^2+-containing buffer or Ca^2+-free buffer, and incubated 37° C. for 30 min, followed by analyzing intracellular calcium levels in the B103 cells in the presence of gintonin or ginsenosides.
# Briefly, B103 cells (1˜2×10^6/ml) were mixed with 2.5 μM Fura 2-AM in a Ca^2+ buffer (pH 7.4) containing NaCl 120 mM, KCl 5 mM, MgCl2 1 mM, CaCl2 1.5 mM, glucose 10 mM, and HEPES 25 mM, and a Ca^2+ free buffer (pH 7.4) containing NaCl 120 mM, KCl 5 mM, MgCl2 1 mM, EGTA 0.2 mM, glucose 10 mM, and HEPES 25 mM at 37° C. for 30 min in water bath with shaking according to the Jørgensen method, and washed three times with Ca^2+ buffer or Ca^2+ free buffer to remove excess Fura-2AM.
# [Ca^2+]i was estimated in Fura 2AM-loaded cells in suspension using an RF-5300PC intracellular ion measurement system (Shimadzu Corporation, Japan).
# Briefly, Fura 2-AM loaded cells were diluted with an experimental medium to a final density of 2˜4×10^6 cells/mL, and transferred to polystyrene cuvettes (Elkay Ultra-VU). The cells were stirred using Teflon-coated magnets, and the cuvette housing was thermostatically controlled at 37° C. The excitation wavelengths were alternated between 340 and 380 nm under computer control. […]
# [1] = tested on: NMDA receptors (NR1 and NR2); assay: NMDA receptor activity in Xenopus oocytes, two-electrode voltage clamp; format: cell-based; settings: Kil6425 10 μM, 2-APB 100 μM, BAPTA 100 μM 3 h; for effect on gintonin-induced NMDA receptor activation: gintonin 1 μg/ml, U73122, U73343 1 μM, genistein 10 μM, PP2, PP3 30 μM
# Procedure: cDNAs of NMDA receptor subunits (NR1 and NR2) were employed (Zheng et al., J Neurosci. 17, 8676-8686, 1997). cDNAs (100 ng/40 nl) corresponding to respective NMDA receptor subunits (NR1 and NR2) were injected into animal or vegetal poles of oocytes by use of a […] (VWR Scientific, USA) and incubated for 4-5 days after injection (Zheng et al., J Neurosci. 17, 8676-8686, 1997).
# (§5) Xenopus laevis frogs were obtained from Xenopus I (Ann Arbor, Mich.). Their care and handling were in accordance with the highest standards of institutional guidelines. To isolate oocytes, the frogs were operated on under anesthesia with an aerated solution of 3-aminobenzoic acid ethyl ester. Oocytes were separated by treatment with collagenase and agitation for two hours in a Ca^2+-free medium containing 82.5 mM NaCl, 2 mM KCl, 1 mM MgCl2, 5 mM HEPES, 2.5 mM sodium pyruvate, 100 units/ml penicillin and 100 μg/ml streptomycin.
# (§6) Stage V-VI oocytes were collected and stored in ND96 (96 mM NaCl, 2 mM KCl, 1 mM MgCl2, 1.8 mM CaCl2, and 5 mM HEPES, pH 7.4) supplemented with 50 μg/ml gentamicin. This oocyte containing solution was maintained at 18° C. with continuous gentle shaking while the ND96 medium was changed to a fresh one every day.
# Two-electrode voltage-clamp recordings were obtained from individual oocytes placed in a small Plexiglas net chamber (5 ml). Electrophysiological experiments were performed using microelectrodes filled with 3 M KCl (resistance of 0.2-0.7 MΩ) and an Oocyte Clamp amplifier (OC-725C; Warner Instrument, Hamden, Conn.). For physiological recordings of NMDA receptor activity, oocytes were first perfused with Mg^2+-free ND96 (mM: 96 NaOH, 2 KOH, 0.3 CaCl2, 5 HEPES pH 7.6 with methanesulfonic acid). Then, the oocytes were clamped at −60 mV holding potential, followed by recoding NMDA currents (induced by administering […]) (Zheng et al., J Neurosci. 17, 8676-8686, 1997; Chang and Kuo, J Neurosci. 28, 1546-1556, 2008).
# mice = assay: Busulfan-caused diarrhea and mucositis in mice; format: in vivo, mouse; settings: busulfan 40 mg/kg i.p.; for Diarrhea (cases / mice) / Mucositis (cases / mice): gintonin 100 mg/kg oral 3 days before, observed 10 days
# Procedure: In this Example, an examination was made of the inhibitory activity of gintonin against chemotherapy-induced diarrhea and mucositis. For this, gintonin-treated mice were administered with busulfan, and observed for diarrhea and mucostitis.
# Briefly, mice were orally administered at a dose of 100 mg/kg with gintonin 3 days before intraperitoneal injection with busulfan (40 mg/kg). For the control, physiological saline was used, instead of gintonin.
# BKCaK+ channels = assay: BKCa K+ channel activity in Xenopus oocytes, two-electrode voltage clamp; format: cell-based; settings: Kil6425 10 μM; U73122, U73343 1 μM; 2-APB 100 μM; BAPTA-AM; PMA 1 μM
# Procedure: as §5
# as §6, with “changed with” for “changed to”
# Two-electrode voltage-clamp recordings were obtained from individual oocytes placed in a small Plexiglas net chamber (5 ml). Electrophysiological experiments were performed using microelectrodes filled with 3 M KCl (resistance of 0.2-0.7 MΩ) and an Oocyte Clamp amplifier (OC-725C; Warner Instrument, CT, USA) to record BKc K^+ channel activity at room temperature (Choi et al., Mol Cells 31, 133-140, 2011). For physiological recordings of BKCaK^+ channel activity, oocytes were first perfused with a Cl^−- and Ca^2+-free solution (mM: 96 NaOH, 2 KOH, 8 Mg-gluconate, 5 HEPES, 5 EGTA, pH 7.4 with methanesulfonic acid) supplemented with 500 μM anthracene-9-carboxylic acid, a Cl^− channel blocker, to block endogenous Cl-channels (Lu et al., J. Biol. Chem. 265, 16190-16194.1990). Then, the oocytes were clamped at −80 mV holding potential, followed by step depolarization from the holding potential to +40 mV at regular intervals of […] for 400 ms to record outward currents.
# LPA2 receptor = LPA2 receptor (Homo sapiens, UniProt Q9HBW0); assay: Intracellular free Ca2+ (Fura-2AM) in LPA2-expressing B103 cells; format: cell-based; set-up: host or cells: B103 rat neuroblastoma cells; settings: LPA2-expressing B103 cells
# Description: as §1, §2, §3, §4
# In this Example, gintonin, or ginsenoside Rb1 or Rg1 was examined for its ability to induce a transient increase of [Ca^2+]i in Fura-2AM-loaded B103 cells which were transfected with LPA receptors and in Fura-2AM-loaded B103 cells which were not transfected with LPA receptors. […]
# endogenous CaCC = assay: Endogenous Ca2+-activated channel (CaCC) activation in Xenopus oocytes; format: cell-based, Xenopus laevis; settings: Kil6425 10 μM; U73122 1 μM; 2-APB 100 μM; BAPTA 100 μM 3 h
# Sequence of LPA2 receptor (Q9HBW0 whole entry): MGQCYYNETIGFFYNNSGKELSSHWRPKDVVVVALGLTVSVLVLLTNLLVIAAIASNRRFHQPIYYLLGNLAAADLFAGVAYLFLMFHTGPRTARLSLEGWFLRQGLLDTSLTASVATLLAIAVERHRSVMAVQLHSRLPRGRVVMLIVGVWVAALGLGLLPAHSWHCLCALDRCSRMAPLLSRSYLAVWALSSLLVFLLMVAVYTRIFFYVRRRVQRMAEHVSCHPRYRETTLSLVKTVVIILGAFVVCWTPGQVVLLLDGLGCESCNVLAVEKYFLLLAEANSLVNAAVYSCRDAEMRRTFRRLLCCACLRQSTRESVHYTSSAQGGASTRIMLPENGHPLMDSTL
compound,measurement,setting,value
"CC(C)=CCC[C@](C)(O[C@@H]1O[C@H](CO[C@@H]2O[C@H](CO)[C@@H](O)[C@H](O)[C@H]2O)[C@@H](O)[C@H](O)[C@H]1O)[C@H]1CC[C@]2(C)[C@@H]1[C@H](O)C[C@@H]1[C@@]3(C)CC[C@H](O[C@@H]4O[C@H](CO)[C@@H](O)[C@H](O)[C@H]4O[C@@H]4O[C@H](CO)[C@@H](O)[C@H](O)[C@H]4O)C(C)(C)[C@@H]3CC[C@]12C [Rb1, ginsenoside Rb1]",increase of intracellular calcium level,LPA3 receptor,no increased intracellular calcium levels were detected
Nc1ncnc2c1cnn2-c1ccccc1 [PP3],effect on gintonin-induced NMDA receptor activation,[1],did not show inhibitory activity
O=c1c(-c2ccc(O)cc2)coc2cc(O)cc(O)c12 [Genistein],effect on gintonin-induced NMDA receptor activation,[1],inhibit gintonin-induced NMDA receptor activation
"CS(=O)(=O)OCCCCOS(C)(=O)=O [Busulfan, busulfan, reference compound]",diarrhea morbidity rate,mice; gintonin 100 mg/kg oral,53.3%
same,perianal mucositis morbidity,mice; gintonin 100 mg/kg oral,46.7%
same,Diarrhea (cases / mice),mice,8/15
same,Mucositis (cases / mice),mice,7/15
same,Mucositis (cases / mice),mice; listed as bufulfan,7
same,Diarrhea (cases / mice),mice; listed as busulfan,8
COc1ccc2c(c1)CC[C@@H]1[C@@H]2CC[C@]2(C)[C@@H](NCCCCCCN3C(=O)C=CC3=O)CC[C@@H]12 [U73122],effect on NMDA-induced inward current,[1]; U73122 1 μM,did not block NMDA-induced inward current
same,effect on gintonin-induced NMDA receptor activation,[1],blocked gintonin-induced NMDA receptor activation
same,effect on gintonin-induced BKCaK+ channel activation,BKCaK+ channels,blocked gintonin-induced BKCaK^+ channel activation
same,effect on gintonin-induced intracellular calcium increase,LPA2 receptor,blocked
same,effect on gintonin-induced CaCC activation,endogenous CaCC,suppressed gintonin-induced CaCC activation
"CC(C)=CCC[C@](C)(O)[C@H]1CC[C@]2(C)[C@@H]1[C@H](O)C[C@@H]1[C@@]3(C)CC[C@H](O[C@@H]4O[C@H](CO)[C@@H](O)[C@H](O)[C@H]4O[C@@H]4O[C@H](CO)[C@@H](O)[C@H](O)[C@H]4O)C(C)(C)[C@@H]3CC[C@]12C [Rg3, ginsenoside Rg3]",increase of intracellular calcium level,LPA3 receptor,no increased intracellular calcium levels were detected
pertussis toxin [PTX],lowering of gintonin-induced increase of intracellular calcium level,"LPA3 receptor; PTX 200 μg/ml, 16 hrs pretreatment, vs cells not treated with PTX",25%
"CC(C)=CCC[C@](C)(O[C@@H]1O[C@H](CO)[C@@H](O)[C@H](O)[C@H]1O)[C@H]1CC[C@]2(C)[C@@H]1[C@H](O)C[C@@H]1[C@@]3(C)CC[C@H](O)C(C)(C)[C@@H]3[C@@H](O[C@@H]3O[C@H](CO)[C@@H](O)[C@H](O)[C@H]3O)C[C@]12C [Rg1, ginsenoside Rg1]",increase of intracellular calcium level,LPA3 receptor,no increased intracellular calcium levels were detected
CC(C)(C)n1nc(-c2ccc(Cl)cc2)c2c(N)ncnc21 [PP2],effect on gintonin-induced NMDA receptor activation,[1],blocked the action of gintonin
COc1ccc2c(c1)CC[C@@H]1[C@@H]2CC[C@]2(C)[C@@H](NCCCCCCN3C(=O)CCC3=O)CC[C@@H]12 [U73343],effect on gintonin-induced NMDA receptor activation,[1],did not block gintonin-induced NMDA receptor activation
same,effect on gintonin-induced BKCaK+ channel activation,BKCaK+ channels,did not block gintonin-induced BKCaK^+ channel activation
